Source: patent US20110183389A1, “PRODUCTION OF LACTIC ACID FROM HEMICELLULOSE EXTRACTS” (priority 2009, published 2011)
Read-outs that look alike come from different tables or passages of the source.

System: Bacillus coagulans MXL-9
Details: for Ferment Time / Acetic Acid Produced / Ethanol Produced / Formic Acid Produced / Lactic Acid Prod. Rate / Lactic Acid Produced / Lactic Acid Yield / Total Products Yield / Xylose Consumed: pH 6.5, 50° C.; for fermentation time: control consumed xylose within 14 hours
[1] = inhibitor conc. 10 g/L, 20 g/L xylose
[2] = inhibitor conc. 20 g/L, 20 g/L xylose
[3] = inhibitor conc. 30 g/L, 20 g/L xylose
[4] = 30 g/L inhibitor, 20 g/L xylose

| SMILES | Ferment Time [1] | Acetic Acid Produced (inhibitor conc. 10 g/L) | Ethanol Produced (inhibitor conc. 10 g/L) | Formic Acid Produced (inhibitor conc. 10 g/L) | Lactic Acid Prod. Rate (inhibitor conc. 10 g/L) | Lactic Acid Produced (inhibitor conc. 10 g/L) | Lactic Acid Yield (inhibitor conc. 10 g/L) | Total Products Yield (inhibitor conc. 10 g/L) | Xylose Consumed (inhibitor conc. 10 g/L) | Ferment Time [2] | Acetic Acid Produced (inhibitor conc. 20 g/L) | Ethanol Produced (inhibitor conc. 20 g/L) | Formic Acid Produced (inhibitor conc. 20 g/L) | Lactic Acid Prod. Rate (inhibitor conc. 20 g/L) | Lactic Acid Produced (inhibitor conc. 20 g/L) | Lactic Acid Yield (inhibitor conc. 20 g/L) | Total Products Yield (inhibitor conc. 20 g/L) | Xylose Consumed (inhibitor conc. 20 g/L) | Ferment Time [3] | Acetic Acid Produced (inhibitor conc. 30 g/L) | also measured |
| --- | --- | --- | --- | --- | --- | --- | --- | --- | --- | --- | --- | --- | --- | --- | --- | --- | --- | --- | --- | --- | --- |
| [Na] [Na, sodium] | 32 h | 0.8 g/L | 0.0 g/L | 1.3 g/L | 0.6 g/L/h | 18.8 g/L | 83.1% | 92.4% | 22.4 g/L | 62 h | 0.7 g/L | 0.0 g/L | 1.3 g/L | 0.3 g/L/h | 19.6 g/L | 85.9% | 94.5% | 22.7 g/L | 150 h | 0.0 g/L | lag time (20 g/L inhibitor, xylose): increased the lag time; overall product yield (20 g/L inhibitor, xylose): did not affect overall product yield; inhibition of xylose fermentation (30 g/L inhibitor): completely inhibitory; cell growth (30 g/L inhibitor, over the course of 6 days): no cell growth occurred; Ethanol Produced (inhibitor conc. 30 g/L): 0.0 g/L; Formic Acid Produced (inhibitor conc. 30 g/L): 0.0 g/L; Lactic Acid Prod. Rate (inhibitor conc. 30 g/L): 0.0 g/L/h; Lactic Acid Produced (inhibitor conc. 30 g/L): 0.0 g/L; Lactic Acid Yield (inhibitor conc. 30 g/L): 2.6%; Total Products Yield (inhibitor conc. 30 g/L): 2.6%; Xylose Consumed (inhibitor conc. 30 g/L): 0.8 g/L |
| CC(=O)O [HAc, acetic acid] | 17 h | 0.0 g/L | 1.0 g/L | 1.1 g/L | 1.0 g/L/h | 17.3 g/L | 81.0% | 90.7% | 21.4 g/L | 22 h | 0.0 g/L | 0.8 g/L | 0.5 g/L | 0.9 g/L/h | 19.3 g/L | 93.6% | 99.8% | 20.6 g/L | 60 h | 0.0 g/L | fermentation time (10 g/L inhibitor): complete in under a day; fermentation time (20 g/L inhibitor): complete in under a day; lag phase [4]: longer lag phase; overall lactic acid yield [4]: not diminished; fermentation time (30 g/L inhibitor): two days; Ethanol Produced (inhibitor conc. 30 g/L): 0.4 g/L; Formic Acid Produced (inhibitor conc. 30 g/L): 0.4 g/L; Lactic Acid Prod. Rate (inhibitor conc. 30 g/L): 0.3 g/L/h; Lactic Acid Produced (inhibitor conc. 30 g/L): 18.5 g/L; Lactic Acid Yield (inhibitor conc. 30 g/L): 91.4%; Total Products Yield (inhibitor conc. 30 g/L): 95.3%; Xylose Consumed (inhibitor conc. 30 g/L): 20.2 g/L |
